Blank lines part the entries; values can stand above or below the molecule they belong to.
Experiments:
Adenosine receptor A1 [1] = biological target: T1, Adenosine receptor A1 (Rattus norvegicus, UniProt P25099); test: Adenosine A1 receptor mediated negative chronotropic activity in spontaneously beating rat atria; format: functional
T1 sequence (P25099 whole entry): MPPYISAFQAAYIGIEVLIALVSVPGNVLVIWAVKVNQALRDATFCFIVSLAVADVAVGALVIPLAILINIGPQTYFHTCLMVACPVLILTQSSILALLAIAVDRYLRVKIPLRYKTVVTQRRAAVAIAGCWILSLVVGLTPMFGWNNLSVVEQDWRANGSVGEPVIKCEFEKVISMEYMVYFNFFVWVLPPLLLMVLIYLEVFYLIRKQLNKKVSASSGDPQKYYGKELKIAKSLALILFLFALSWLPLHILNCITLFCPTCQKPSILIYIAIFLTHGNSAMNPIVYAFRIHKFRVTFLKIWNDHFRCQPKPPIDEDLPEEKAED

Adenosine receptor A1 [2] = biological target: T1, Adenosine receptor A1
Description: Displacement of [3H]CHA from Adenosine A1 receptor of rat brain

Adenosine receptor A2a [3] = biological target: T2, Adenosine receptor A2a (Rattus norvegicus, UniProt P30543)
T2 sequence (P30543 whole entry): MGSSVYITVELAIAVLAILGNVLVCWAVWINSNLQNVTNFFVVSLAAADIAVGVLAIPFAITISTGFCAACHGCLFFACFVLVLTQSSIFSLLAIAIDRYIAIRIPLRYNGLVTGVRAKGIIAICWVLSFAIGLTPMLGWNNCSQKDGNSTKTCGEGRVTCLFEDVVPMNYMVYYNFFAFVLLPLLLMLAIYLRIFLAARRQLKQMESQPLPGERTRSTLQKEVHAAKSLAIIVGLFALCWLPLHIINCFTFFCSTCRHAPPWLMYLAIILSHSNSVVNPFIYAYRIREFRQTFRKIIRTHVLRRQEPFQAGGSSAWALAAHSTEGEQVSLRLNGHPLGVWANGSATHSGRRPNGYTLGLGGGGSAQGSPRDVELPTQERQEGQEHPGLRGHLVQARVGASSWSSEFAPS
Description: Displacement of [3H]-CGS- 51680 from Adenosine A2A receptor of rat striatum.

Adenosine receptor A2a [4] = biological target: T2, Adenosine receptor A2a; remark: listed apart in the source
Description: Vasorelaxation as Adenosine A2A receptor activity in rat aorta

Structure (SMILES): CCCC/C=C/c1nc(N)c2ncn([C@@H]3O[C@H](CO)[C@@H](O)[C@H]3O)c2n1
Ki (Adenosine receptor A1 [2]): 332 nM
Ki (Adenosine receptor A2a [3]): 14 nM

Structure (SMILES): CCCCC#Cc1nc(N)c2ncn([C@@H]3O[C@H](CO)[C@@H](O)[C@H]3O)c2n1
EC50 (Adenosine receptor A1 [1]): > 1 nM
Ki (Adenosine receptor A1 [2]): 98 nM

Structure (SMILES): CCNC(=O)[C@H]1O[C@@H](n2cnc3c(N)nc(/C=C\CCCc4ccccc4)nc32)[C@H](O)[C@@H]1O
EC50 (Adenosine receptor A1 [1]): > 1 nM
Ki (Adenosine receptor A1 [2]): > 1 nM
Ki (Adenosine receptor A2a [3]): 51 nM
EC50 (Adenosine receptor A2a [4]): > 1 nM

Structure (SMILES): CCCC/C=C/c1nc(N)c2ncn([C@@H]3O[C@H](C(=O)NCC)[C@@H](O)[C@H]3O)c2n1
EC50 (Adenosine receptor A1 [1]): > 1 nM
Ki (Adenosine receptor A1 [2]): 251 nM
Ki (Adenosine receptor A2a [3]): 1.6 nM
EC50 (Adenosine receptor A2a [4]): 594 nM

Structure (SMILES): CCCCCCc1nc(N)c2ncn([C@@H]3O[C@H](C(=O)NCC)[C@@H](O)[C@H]3O)c2n1
EC50 (Adenosine receptor A1 [1]): > 1 nM
Ki (Adenosine receptor A1 [2]): > 1 nM
Ki (Adenosine receptor A2a [3]): 136 nM
EC50 (Adenosine receptor A2a [4]): 1 nM

Structure (SMILES): CCNC(=O)[C@H]1O[C@@H](n2cnc3c(N)nc(C#CCCCc4ccccc4)nc32)[C@H](O)[C@@H]1O
EC50 (Adenosine receptor A1 [1]): > 1 nM

Other lines, results leading:

EC50 (Adenosine receptor A1 [1]): > 1 nM
Ki (Adenosine receptor A1 [2]): > 1 nM
Ki (Adenosine receptor A2a [3]): > 1 nM
Structure (SMILES): CCCCCCc1nc(N)c2ncn(C3O[C@H](CO)[C@@H](O)[C@H]3O)c2n1 (stereo partly drawn)

EC50 (Adenosine receptor A1 [1]): > 1 nM
Structure (SMILES): CCCCC#Cc1nc(N)c2ncn([C@@H]3O[C@H](C(=O)NCC)[C@@H](O)[C@H]3O)c2n1

EC50 (Adenosine receptor A1 [1]): > 1 nM
Ki (Adenosine receptor A1 [2]): 618 nM
Ki (Adenosine receptor A2a [3]): 757 nM
Structure (SMILES): CCCC/C=C\c1nc(N)c2ncn([C@@H]3O[C@H](CO)[C@@H](O)[C@H]3O)c2n1

EC50 (Adenosine receptor A1 [1]): > 1 nM
Ki (Adenosine receptor A1 [2]): 951 nM
Ki (Adenosine receptor A2a [3]): 70 nM
EC50 (Adenosine receptor A2a [4]): 676 nM
Structure (SMILES): CCCC/C=C\c1nc(N)c2ncn(C3O[C@H](C(=O)NCC)[C@@H](O)[C@H]3O)c2n1 (stereo partly drawn)

EC50 (Adenosine receptor A1 [1]): 420 nM
Ki (Adenosine receptor A1 [2]): 117 nM
Ki (Adenosine receptor A2a [3]): 234 nM
EC50 (Adenosine receptor A2a [4]): 194 nM
Structure (SMILES): CCNC(=O)[C@H]1O[C@@H](n2cnc3c(N)nc(/C=C/c4ccccc4)nc32)[C@H](O)[C@@H]1O

EC50 (Adenosine receptor A1 [1]): > 1 nM
Ki (Adenosine receptor A1 [2]): 1020 nM
Ki (Adenosine receptor A2a [3]): 3.5 nM
EC50 (Adenosine receptor A2a [4]): 576 nM
Structure (SMILES): CCNC(=O)[C@H]1O[C@@H](n2cnc3c(N)nc(/C=C/CCCc4ccccc4)nc32)[C@H](O)[C@@H]1O

EC50 (Adenosine receptor A1 [1]): > 1 nM
EC50 (Adenosine receptor A2a [4]): > 1 nM
Structure (SMILES): CCNC(=O)[C@H]1O[C@@H](n2cnc3c(N)nc(C#Cc4ccccc4)nc32)[C@H](O)[C@@H]1O

— ChEMBL document CHEMBL1129447 (J Med Chem, 1996)
